In this assay the test system is bacteria. In words: Antibacterial activity. It counts as cell-based.

Regarding `COC1(C)CC(O[C@H]2[C@H](C)[C@@H](OC3OC(C)CC(N(C)C)C3O)[C@](C)(O)C[C@@H](C)C(=O)[C@H](C)[C@@H](O)[C@](C)(O)[C@@H](CCF)OC(=O)[C@@H]2C)OC(C)C1O` (some centres unmarked) [15-fluoroerythromycin A, 15-Fluoroerythromycin A], the antibacterial activity entry is “strong antibacterial activity”. As to `CCC[C@H]1OC(=O)[C@H](C)[C@@H](O[C@H]2C[C@@](C)(OC)[C@@H](O)[C@H](C)O2)[C@H](C)[C@@H](O[C@@H]2O[C@H](C)C[C@H](N(C)C)[C@H]2O)[C@](C)(O)C[C@@H](C)C(=O)[C@H](C)[C@@H](O)[C@]1(C)O` [15-methylerythromycin A], the antibacterial activity entry is reported as “strong antibacterial activity”.

For the origin of these results see patent US6492562B1, “Racemic thioesters for production of polyketides” (Kosan Biosciences, Inc., priority 1999, dated 2002).
